In patent US5198430A, “Inclusion complexes with silybinin, their preparation and pharmaceutical compositions containing them” (Istituto Biochimico Italiano Giovanni Lorenzini SpA, priority 1989, dated 1993):

Experiments:
in vivo = test: in vivo; parameters: species or system Wistar rats; conditions: po, 8 mg/kg
Procedure: The absorption of the complexes of the invention has been evaluated by orally administering an aqueous solution of the composition under examination and measuring by HPLC the Silybinin bile levels. This test has been preferred because it is well known that drugs of the Silymarin kind reach in the bile the highest concentration.
The experiments have been carried out on Wistar rats weighing 180-200 g to which the compositions under examination were administered by gastric intubation. The animals were kept on an empty stomach for 16 hours. The composition to be tested was dissolved in water containing 10% of gum Arabic and were prepared solutions so that each animal was administered,each time with an amount of 5 ml/kg of said solution.
Immediately after the treatment the animals were anaesthetized and operated to check the coledocous duct. A small tube was inserted therein and the bile was collected over a period of 24 hours.
For the analytical determination 1 ml bile was treated as described in the following publication: D. Lorenz et al, Pharmacokinetic Studies with Silymarin in Human Serum and Bile--Meth. and Find.Exptl.Clin.Pharmacol.6(10) 655-661 (1984).
in test A, there were administered 20 mg/kg of Silymarin, according to a known commercial formulation which corresponds to 8 mg/kg of pure Silybinin,
in test B, there were administered 8.79 mg/kg of Silybinin having a HPLC titre of 91%, which corresponds to 8 mg/kg of pure Silybinin, used such as without excipients, […]

[1] = pH 7.5
Procedure: Release experiments with Silybinin, Silymarin and the complex of this Example were carried out according to USP XXII, paddle apparatus at pH 7.5 and 37° C.

[2] = Thermoanalytical studies (TG, DTG, DSC, TEA); assay type: physicochemical
Procedure: Thermoanalytical investigations were carried out on a Du Pont 990 Thermal Analyser System. TG (Thermogravimetry) DTG (Differential TG) DSC (Differential Scanning Calorimetry) and TEA (Thermal Evolution Analysis) curves of the drug, as well as those of its mechanical mixtures with DIMEB and HP-βCD and the complexes were taken simultaneously.

[3] = Resorption: excretion of Silybinin in rat bile after intragastric administration, quantitative TLC; parameters: species or system male Wistar SPF rats; conditions: in vivo, po, 5 mg/kg
Procedure: In a further experiment the resorption of Silymarin, Silybinin and of the complex of Example 6 was evaluated. For this purpose the excretion of Silybinin in the rat bile was determined in a conventional model experiment. Anesthetized male Wistar SPF rats kept under conventional conditions, were cannulated at the ductus choledochus. After intragastric administration of the test compound (5 mg Silybinin/kg) the bile fluid was collected for 5hr. The Silybinin content in the bile fluid was determined by quantitative thin layer chromatography.

Molecule	0-24 hr Silybinin in bile per rat (in vivo)	% excreted Silybinin (in vivo; rat, 1440 min)	Bile 0-24 hr Silybinin level (in vivo; rat, 1440 min)	release (solubility) [1]	temperature at which decomposition of the drug begins ([2]; DSC, FIG. 4, non-complexed Silybinin)	loss of weight up to 160° C. ([2]; first decomposition step)	start of second decomposition step ([2]; region of the cyclodextrin decomposition)	concentration at 24 h (in vivo; rat)	dose excreted at 24 h (in vivo; rat)	dose excreted at 5 h [3]
Silybinin: β-cyclodextrin Inclusion Complex (Molar Ratio 1:1) [Example 1]	256.6 mcg/rat	11.7%	17.6 µg/mL							
COc1cc(C2Oc3cc(C4Oc5cc(O)cc(O)c5C(=O)C4O)ccc3OC2CO)ccc1O (centres unmarked) [Silybinin]	11.9 mcg/rat			0%	about 130 °C	4-5%	above 250 °C	1000 ng/mL	0.6%	0.21%
